From the NIST ThermoML archive (doi:10.1021/je300590v)

Experiment: xn = mol fraction of the nth substance listed
Conditions: Vibrating tube method

N#N [nitrogen] + O=C=O
mass density [kg/m3]
Conditions | x2 = 0.8785 | x2 = 0.9873
273.15 K, 1001 kPa, Gas | 22.5 | 21.9
273.15 K, 2000 kPa, Gas | 43.7 | –
273.15 K, 2001 kPa, Gas | – | 46
273.15 K, 3001 kPa, Gas | 69.6 | 76.9
273.15 K, 3480 kPa, Gas | – | 98
273.15 K, 3902 kPa, Liquid | – | 911.4
273.15 K, 4000 kPa, Liquid | – | 911.6
273.15 K, 4001 kPa, Gas | 104 | –
273.15 K, 4100 kPa, Gas | 108.6 | –
273.15 K, 5001 kPa, Liquid | – | 922.2
273.15 K, 6000 kPa, Liquid | – | 930.9
273.15 K, 7000 kPa, Liquid | – | 938.7
273.15 K, 8001 kPa, Liquid | – | 946
273.15 K, 8401 kPa, Liquid | 805 | –
273.15 K, 9000 kPa, Liquid | – | 952.8
273.15 K, 9001 kPa, Liquid | 811.5 | –
273.15 K, 10000 kPa, Liquid | – | 959.2
273.15 K, 10001 kPa, Liquid | 824 | –
273.15 K, 11001 kPa, Liquid | – | 965.2
273.15 K, 11003 kPa, Liquid | 836 | –
273.15 K, 12000 kPa, Liquid | 847 | 970.8
273.15 K, 13001 kPa, Liquid | 856.6 | –
273.15 K, 13002 kPa, Liquid | – | 976.3
273.15 K, 14000 kPa, Liquid | 865.1 | –
273.15 K, 14001 kPa, Liquid | – | 981.5
273.15 K, 15001 kPa, Liquid | – | 986.6
273.15 K, 15002 kPa, Liquid | 873.4 | –
273.15 K, 16000 kPa, Liquid | – | 991.4
273.15 K, 16001 kPa, Liquid | 880.8 | –
273.15 K, 17000 kPa, Liquid | 887.8 | –
273.15 K, 17002 kPa, Liquid | – | 996.1
273.15 K, 18000 kPa, Liquid | 894.6 | –
273.15 K, 18012 kPa, Liquid | – | 1000.6
273.15 K, 19001 kPa, Liquid | 900.7 | –
273.15 K, 19011 kPa, Liquid | – | 1004.8
273.15 K, 20000 kPa, Liquid | 906.6 | –
273.15 K, 20001 kPa, Liquid | – | 1008.7
283.15 K, 1000 kPa, Gas | – | 20.1
283.15 K, 1004 kPa, Gas | 19.4 | –
283.15 K, 2000 kPa, Gas | – | 42.5
283.15 K, 2001 kPa, Gas | 40.3 | –
283.15 K, 3000 kPa, Gas | 64.6 | 69.8
283.15 K, 4000 kPa, Gas | – | 106.2
283.15 K, 4001 kPa, Gas | 93.7 | –
283.15 K, 4500 kPa, Gas | – | 131.6
283.15 K, 5001 kPa, Gas | 131.6 | –
283.15 K, 5101 kPa, Liquid | – | 841.4
283.15 K, 5600 kPa, Gas | 170.5 | –
283.15 K, 6001 kPa, Liquid | – | 857.5
283.15 K, 7000 kPa, Liquid | – | 870.7
283.15 K, 8000 kPa, Liquid | – | 882.2
283.15 K, 9001 kPa, Liquid | 708.8 | 892.5
283.15 K, 10001 kPa, Liquid | – | 901.7
283.15 K, 10002 kPa, Liquid | 736.1 | –
283.15 K, 11001 kPa, Liquid | 757.6 | 910.2
283.15 K, 12000 kPa, Liquid | 775.3 | –
283.15 K, 12001 kPa, Liquid | – | 918
283.15 K, 13000 kPa, Liquid | – | 925.4
283.15 K, 13002 kPa, Liquid | 790.5 | –
283.15 K, 14000 kPa, Liquid | – | 932.2
283.15 K, 14001 kPa, Liquid | 803.8 | –
283.15 K, 15001 kPa, Liquid | – | 938.7
283.15 K, 15002 kPa, Liquid | 815.4 | –
283.15 K, 16001 kPa, Liquid | 825.4 | 944.9
283.15 K, 17000 kPa, Liquid | 835 | –
283.15 K, 17001 kPa, Liquid | – | 950.9
283.15 K, 18000 kPa, Liquid | 843.9 | –
283.15 K, 18003 kPa, Liquid | – | 956.5
283.15 K, 19001 kPa, Liquid | 852.1 | –
283.15 K, 19002 kPa, Liquid | – | 961.9
283.15 K, 20001 kPa, Liquid | 859.6 | 967
293.15 K, 1000 kPa, Gas | – | 18.4
293.15 K, 1001 kPa, Gas | 18.8 | –
293.15 K, 2000 kPa, Gas | 38.4 | 39.5
293.15 K, 3000 kPa, Gas | 60.8 | –
293.15 K, 3001 kPa, Gas | – | 64.3
293.15 K, 4001 kPa, Gas | 86.7 | 94.5
293.15 K, 5000 kPa, Gas | 117.2 | 135.5
293.15 K, 5700 kPa, Gas | – | 180.8
293.15 K, 6000 kPa, Gas | 156.7 | –
293.15 K, 6300 kPa, Liquid | – | 750.2
293.15 K, 7000 kPa, Liquid | – | 775
293.15 K, 7002 kPa, Gas | 213.8 | –
293.15 K, 7601 kPa, Gas | 271.4 | –
293.15 K, 8001 kPa, Liquid | – | 799.6
293.15 K, 9000 kPa, Liquid | – | 818.4
293.15 K, 9401 kPa, Liquid | 526.3 | –
293.15 K, 10000 kPa, Liquid | – | 833.7
293.15 K, 10001 kPa, Liquid | 579.5 | –
293.15 K, 11001 kPa, Liquid | 633.1 | –
293.15 K, 11002 kPa, Liquid | – | 846.8
293.15 K, 12001 kPa, Liquid | – | 858.3
293.15 K, 12002 kPa, Liquid | 669.7 | –
293.15 K, 13000 kPa, Liquid | 696.3 | 868.3
293.15 K, 14000 kPa, Liquid | – | 877.6
293.15 K, 14001 kPa, Liquid | 718.1 | –
293.15 K, 15001 kPa, Liquid | 736.4 | 886.2
293.15 K, 16001 kPa, Liquid | 752.3 | –
293.15 K, 16002 kPa, Liquid | – | 894.2
293.15 K, 17000 kPa, Liquid | 766.2 | –
293.15 K, 17001 kPa, Liquid | – | 901.7
293.15 K, 18000 kPa, Liquid | 778.4 | –
293.15 K, 18001 kPa, Liquid | – | 908.6
293.15 K, 19001 kPa, Liquid | 789.6 | 915.2
293.15 K, 20000 kPa, Liquid | 799.8 | –
293.15 K, 20001 kPa, Liquid | – | 921.4
